Earlier results, collected in patent US8278040B2, “Optically responsive and mechanically tunable colloid-in-liquid crystal gels” (priority 2008, dated 2012).

System: live cells

## CCCCCc1ccc(-c2ccc(C#N)cc2)cc1 [5CB, 4-cyano-4′-pentylbiphenyl]
General statement, criteria of Luk et al.
  toxicity to living cells (stated): cytotoxic
Placed into direct contact with live cells
  cell death on direct contact with live cells: cause cell death within a short time period
